We go through two substances from patent US20250145715A1, “B7-H3 TARGETING FUSION PROTEINS AND METHODS OF USE THEREOF” (GT Biopharma, Inc., priority 2021, published 2025).

Test [1] relates to C4-2 prostate cancer cells. Description: NK cell CD107a / IFNγ flow cytometry against C4-2. Type of test: cell-based, human. Conditions: normal donor and prostate cancer patient NK cells, vs controls. An excerpt: FIG. 15A is a graph showing pooled analysis of proportion of NK cells from healthy donors or prostate cancer patients expressing CD107a+ (top) or IFNγ (bottom) against C4-2 targets (N=9 for healthy donors, N=3 for patients). FIG. 15B is a graph showing pooled analysis of proportion of NK cells from healthy donors or prostate cancer patients expressing CD107a+ (top) or IFNγ (bottom) against DU145 targets (N=9 for healthy donors, N=3 for patients). FIG. 15C is a graph showing pooled analysis of proportion of NK cells from healthy donors or prostate cancer patients expressing CD107a+ (top) or IFNγ (bottom) against LNCaP targets (N=9 for healthy donors, N=3 for patients). FIG. 15D is a graph showing pooled analysis of proportion of NK cells from healthy donors or prostate cancer patients expressing CD107a+ (top) or IFNγ (bottom) against PC3 targets (N=9 for healthy donors, N=3 for patients). * p<0.05, ** p<0.01, *** p<0.001, and **** p<0.0001.
FIG. 23A is a graph illustrating percent CD107a+ NK cells in PBMCNK alone in the presence of 0.3 nM TriKE. […]
ADCC was measured in a flow cytometry assay by evaluating degranulation via CD107a (lysosomal-associated membrane protein LAMP-1) and intracellular IFNγ production. […] Samples were washed and evaluated in an LSRII flow cytometer (BD Biosciences, San Jose, CA, USA). […]

The subject of test [2] is HNSCC cell lines (Cal27 trio, Cal33 trio). Description: NK cell CD107a / IFN-γ flow cytometry against HNSCC lines. Type of test: cell-based, human. As for the experimental part:
FIGS. 27A-27D illustrate the functional validation of B7-H3 TriKE. FIG. 27A is a graph illustrating CD107a expression in PBMCs from healthy donors incubated with Cal27 trio. FIG. 27B is a graph illustrating intracellular IFN-γ production in PBMCs from healthy donors incubated with Cal27 trio. FIG. 27C is a graph illustrating CD107a expression in PBMCs from healthy donors incubated with Cal33 trio. FIG. 27D is a graph illustrating intracellular IFN-γ production in PBMCs from healthy donors incubated with Cal33 trio.
NK cell responses against HNSCC lines in the presence of the B7-H3 TriKE were assessed through either flow cytometry based functional assays, to evaluate NK cell degranulation and cytokine secretion, or IncuCyte imaging assays, to directly assess target killing. NK cell degranulation and IFN-gamma production of B7-H3 TriKE-treated samples were higher compared to that of control samples treated with B7-H3 single domain or IL-15 alone. […] Ongoing experiments will evaluate the functionality and efficacy of the B7-H3 TriKE in vivo.
Frozen PBMCs (N=3) from healthy donors were incubated for 5 hours with (A-B) Cal27 trio and […] Cal33 trio (each trio consisting of a HNSCC WT line and 2 clones of HNSCC FANCA KO lines) in different treatments: no treatment or 3 nM IL-15, MOPC, B7-H3 SD and B7-H3TriKE to evaluate CD107a expression (as a marker for degranulation) and intracellular IFN-γ production. Error bars indicate standard error of mean, and statistical significance was determined as *p<0.05, **p<0.01, ***p<0.001 and ****p<0.0001

[3] abbreviates: vs B7-H3 single domain or IL-15 alone.

On to “cam1615B7-H3: second-generation TriKE: humanized camelid anti-CD16 VHH, human wild-type IL-15, anti-B7-H3 mAb 376.96 scFv; SEQ ID NO:1”, for which, in test [1], the “NK cell IFNγ production against C4-2” value is “enhanced” and the “NK cell degranulation (CD107a) against C4-2” value is “enhanced”.
With “B7-H3 TriKE: camelid nanobodies targeting CD16 and B7-H3 joined by IL-15 and two linkers; sequence table equates the name with cam1615B7-H3”, the “NK cell activity (CD107a, IFN-γ) against HNSCC” value in test [2] (3 nM, 5 hours, Cal27 trio and Cal33 trio, healthy donor PBMCs) is “induced NK cell activity against HNSCC”. In test [2] (setting [3]), the “NK cell IFN-gamma production against HNSCC” value is recorded as “higher” and the “NK cell degranulation against HNSCC” value is “higher”.
